Assay results published in the supplement of paper PMC4862054.

Legend:
BT-549 = conditions: 72 h
Summary of the method: (§1)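 Breast cancer cell lines in 20 µl suspension were seeded onto 384-well plates that already held compound dissolved in 5 µl medium and were incubated for 72 h. Viability was measured by adding 2.5 µl CellTiter-Blue for 2 h at 37 °C and reading fluorescence at 560/590 nm. Each plate was normalised to vehicle and a positive kill control and checked by Z'-factor. EC50 was taken from a fitted percent-inhibition dose-response curve, censored at the highest concentration, and rows with a drug sensitivity score of zero were removed.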

CAL-120 = conditions: 72 h
Summary of the method: as §1

HCC1937 [1] = conditions: 72 h
Summary of the method: as §1

MDA-MB-436 = conditions: 72 h
Summary of the method: as §1

SK-BR-3 = conditions: 72 h
Summary of the method: as §1

HCC1937 [2] = assay: drug sensitivity score (DSS), CellTox Green (DSS (AUC-based score)); higher = stronger drug effect (viability inhibition or cytotoxicity); extreme values may be limits of the assay; conditions: incubation time: 72 h
Summary of the method: (§2)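 Breast cancer cell lines (20 µl suspension) were seeded into 384-well plates holding compound at 5 concentrations in 10-fold steps over a compound-specific 10,000-fold range, then incubated 72 h. CellTox Green fluorescence (485/520 nm) was read first, then CellTiter-Glo luminescence after 10 min at room temperature. Each plate was normalised to 0.1 % DMSO and a positive kill control. The drug sensitivity score was calculated from the area under the fitted dose-response curve.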

MDA-MB-231 = assay: as above; conditions: incubation time: 72 h
Summary of the method: as §2

Hs578T = assay: as above; conditions: incubation time: 72 h
Summary of the method: as §2

EC50, CellTiter-Blue viability (BT-549) [nM] | EC50, CellTiter-Blue viability (HCC1937 [1]) [nM] | EC50, CellTiter-Blue viability (MDA-MB-436) [nM] | EC50, CellTiter-Blue viability (SK-BR-3) [nM] | Structure (SMILES) | EC50, CellTiter-Blue viability (CAL-120) [nM] | drug sensitivity score (HCC1937 [2]) | drug sensitivity score (MDA-MB-231) | drug sensitivity score (Hs578T)
2770 | 3980 | 3530 | 2470 | CN1CCC(COc2cnc(-c3cccc(Cn4nc(-c5cccc(C#N)c5)ccc4=O)c3)nc2)CC1 | 4950 | 0 | 0 | –
2700 | 1910 | 5410 | 7.53 | CN(C)C/C=C/C(=O)Nc1cc2c(Nc3ccc(F)c(Cl)c3)ncnc2cc1O[C@H]1CCOC1 [Afatinib] | 836 | 1.72 | 0 | 1.68
298 | 133 | 330 | 79.7 | CN1CC[C@H](c2c(O)cc(O)c3c(=O)cc(-c4ccccc4Cl)oc23)[C@H](O)C1 [Alvocidib] | 98.2 | 0 | 16.5 | 8.33
839 | 73.4 | 799 | 884 | Nc1nc(Cl)nc2c1ncn2[C@H]1C[C@H](O)[C@@H](CO)O1 [Cladribine] | 923 | 0 | 0.0524 | 0
12.8 | 117 | 156 | 487 | Nc1ccn([C@@H]2O[C@H](CO)[C@@H](O)[C@@H]2O)c(=O)n1 [Cytarabine] | 246 | 0 | 0 | 0
1.27 | 2.17 | 6.66 | 2.91 | Cc1c2oc3c(C)ccc(C(=O)N[C@@H]4C(=O)N[C@H](C(C)C)C(=O)N5CCC[C@H]5C(=O)N(C)CC(=O)N(C)[C@@H](C(C)C)C(=O)O[C@@H]4C)c3nc-2c(C(=O)N[C@@H]2C(=O)N[C@H](C(C)C)C(=O)N3CCC[C@H]3C(=O)N(C)CC(=O)N(C)[C@@H](C(C)C)C(=O)O[C@@H]2C)c(N)c1=O [Dactinomycin] | 1.09 | 0 | 20.5 | 12.5
196 | 55.1 | 190 | 49.4 | COc1cccc2c1C(=O)c1c(O)c3c(c(O)c1C2=O)C[C@@](O)(C(=O)CO)C[C@@H]3O[C@H]1C[C@H](N)[C@H](O)[C@H](C)O1 [Doxorubicin] | 96.4 | 0 | 0 | 0
2580 | 771 | 370 | 73.4 | COc1cccc2cc(-c3nc([C@H]4CC[C@H](C(=O)O)CC4)n4ncnc(N)c34)[nH]c12 [OSI-027] | 1800 | 0 | 0 | 0
20.9 | 100 | 25.2 | 15.7 | C=CCNC1=C2C[C@@H](C)C[C@H](OC)[C@H](O)[C@@H](C)/C=C(\C)[C@H](OC(N)=O)[C@@H](OC)/C=C\C=C(/C)C(=O)NC(=CC1=O)C2=O [Tanespimycin] | 218 | 0 | 25.3 | 1.53
3.04 | 0.67 | 5.02 | 0.3 | CC[C@]1(O)C[C@@H]2CN(CCc3c([nH]c4ccccc34)[C@@](C(=O)OC)(c3cc4c(cc3OC)N(C)[C@H]3[C@@](O)(C(=O)OC)[C@H](OC(C)=O)[C@]5(CC)C=CCN6CC[C@]43[C@@H]65)C2)C1 [Vinblastine] | 0.3 | 0 | 17 | 21.4
